In PMC5708337 (2017):

Key:
[1] = tested on: DSbiotin (DNA, duplex) GGCATAGTGCGTGGGCGTTAGC/GCTAACGCCCACGCACTATGCC; experiment: SPR, single concentration; conditions: Na+ (100 mM NaCl, 10 mM sodium cacodylate); pH 5.5, 0.05% Tween-20, 5% DMSO; 50 μM compound
[2] = tested on: c-MycCBiotin (DNA, i motif) CCTTCCCCACCCTCCCCACCCTCCCCA; experiment: SPR, single concentration; conditions: Na+ (100 mM NaCl, 10 mM sodium cacodylate); pH 5.5, 0.05% Tween-20, 5% DMSO; 50 μM compound
[3] = tested on: hTeloCBiotin (DNA, i motif) TAACCCTAACCCTAACCCTAACCC; experiment: SPR, single concentration; conditions: Na+ (100 mM NaCl, 10 mM sodium cacodylate), pH 5.5, 0.05% Tween-20, 5% DMSO, 50 μM compound; for binding: NB
[4] = tested on: hTeloC (DNA, i motif) TAACCCTAACCCTAACCCTAACCC; experiment: fluorescent intercalator displacement; conditions: Na+ (10 mM sodium cacodylate); pH 5.5; thiazole orange 2 μM displaced; 1 μM DNA
[5] = tested on: c-MycCBiotin (DNA, i motif) CCTTCCCCACCCTCCCCACCCTCCCCA; experiment: SPR; conditions: Na+ (100 mM NaCl, 10 mM sodium cacodylate); pH 5.5, 0.05% Tween-20, 5% DMSO
[6] = tested on: DSbiotin (DNA, duplex) GGCATAGTGCGTGGGCGTTAGC/GCTAACGCCCACGCACTATGCC; experiment: SPR; conditions: Na+ (100 mM NaCl, 10 mM sodium cacodylate); pH 5.5, 0.05% Tween-20, 5% DMSO
[7] = tested on: hTeloCBiotin (DNA, i motif) TAACCCTAACCCTAACCCTAACCC; experiment: SPR; conditions: Na+ (100 mM NaCl, 10 mM sodium cacodylate); pH 5.5, 0.05% Tween-20, 5% DMSO

Row | Structure (SMILES) | %Rmax [1] [%] | %Rmax [2] [%] | binding [3] | DC50 [4] [µM] | %Rmax [3] [%] | Kd [5] [µM] | Kd [6] [µM] | Kd [7] [µM]
1 | CC1=NCCc2c1[nH]c1cc(O)ccc21 | 123 | 64 | no | – | – | – | – | –
2 | CCN(CC)CCOc1ccc2c(c1)C(=O)c1cc(OCCN(CC)CC)ccc1-2 | 811 | 420 | – | 2.4 | 116 | – | – | –
3 | CCN(CC)Cc1cc(Nc2ccnc3cc(Cl)ccc23)ccc1O | 59 | 31 | – | – | 15 | – | – | –
4 | CN(C)c1ccc(O)c2c1C[C@H]1C[C@H]3[C@H](N(C)C)C(O)=C(C(N)=O)C(=O)[C@@]3(O)C(O)=C1C2=O | 69 | 36 | – | – | 29 | – | – | –
5 | NC[C@H]1O[C@H](O[C@H]2[C@H](O)[C@@H](O[C@H]3O[C@H](CO)[C@@H](O)[C@H](N)[C@H]3O)[C@H](N)C[C@@H]2N)[C@H](N)C[C@@H]1O | 233 | 121 | – | 2.9 | 325 | 13 ± 1.8 | 18 ± 1.1 | 17 ± 2.0
6 | Nc1ccc(N=Nc2ccccc2)c(N)n1 | 137 | 71 | – | – | 38 | – | – | –
7 | O=C1c2c(O)ccc(O)c2C(=O)c2c(NCCNCCO)ccc(NCCNCCO)c21 | 4894 | 2534 | – | 1.8 | 2125 | – | – | –
8 | O=C1c2ccc(O)c(O)c2C(=O)c2c(O)ccc(O)c21 | 95 | 49 | no | – | – | – | – | –
